In PubChem BioAssay AID1963842 (Molecular Pharmacology Branch, DTP, NCI, 2024):

Tested on: 677734-321-R-J1-PDC complex spheroid viability
Test: Anticancer human tumor 677734-321-R-J1-PDC patient-derived soft tissue sarcoma cell line growth inhibition [POLQ]
Conditions: for IC50: curve of first compound; for viability, T/C: stronger effect = lower value
Outline: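 Growth inhibition in 3D: complex spheroids (tumor PDC, HUVEC, MSC) treated with POLQ inhibitor combinations; where Cmax unknown, highest tested concentration 10 microM, except SN-38 at 1 microM.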

[1] = second compound 0.0316 µM, first compound 0.0316 µM
[2] = second compound 0.0316 µM, first compound 0.1 µM
[3] = second compound 0.0316 µM, first compound 0.316 µM
[4] = second compound 0.0316 µM, first compound 1 µM
[5] = second compound 0.1 µM, first compound 0.0316 µM
[6] = second compound 0.1 µM, first compound 0.1 µM
[7] = second compound 0.1 µM, first compound 0.316 µM
[8] = second compound 0.1 µM, first compound 1 µM
[9] = second compound 0.316 µM, first compound 0.0316 µM
[10] = second compound 0.316 µM, first compound 0.1 µM
[11] = second compound 0.316 µM, first compound 0.316 µM
[12] = second compound 0.316 µM, first compound 1 µM
[13] = second compound 1 µM, first compound 0.0316 µM
[14] = second compound 1 µM, first compound 0.1 µM
[15] = second compound 1 µM, first compound 0.316 µM
[16] = second compound 1 µM, first compound 1 µM
[17] = second compound 3.16 µM, first compound 0.0316 µM
[18] = second compound 3.16 µM, first compound 0.1 µM
[19] = second compound 3.16 µM, first compound 0.316 µM
[20] = second compound 3.16 µM, first compound 1 µM
[21] = second compound 10 µM, first compound 0.0316 µM
[22] = second compound 10 µM, first compound 0.1 µM
[23] = second compound 10 µM, first compound 0.316 µM
[24] = second compound 10 µM, first compound 1 µM
[25] = second compound 0.0316 µM, first compound 0.00316 µM
[26] = second compound 0.0316 µM, first compound 0.01 µM
[27] = second compound 0.1 µM, first compound 0.00316 µM
[28] = second compound 0.1 µM, first compound 0.01 µM
[29] = second compound 0.316 µM, first compound 0.00316 µM
[30] = second compound 0.316 µM, first compound 0.01 µM
[31] = second compound 1 µM, first compound 0.00316 µM
[32] = second compound 1 µM, first compound 0.01 µM
[33] = second compound 3.16 µM, first compound 0.00316 µM
[34] = second compound 3.16 µM, first compound 0.01 µM
[35] = second compound 10 µM, first compound 0.00316 µM
[36] = second compound 10 µM, first compound 0.01 µM
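Note: spheroids exposed to compounds for one week.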
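Throughout, for viability, T/C: 100% = vehicle DMSO treated spheroids.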

CCc1cc2c(N3CCc4c(cc(Cn5ccnc5)cc4-c4cn(C)nc4C(F)(F)F)C3=O)cc(C)nc2c(OC)n1 + Nc1ccc(C#CCN(C(=O)Cc2ncc(C(F)(F)F)cc2C(F)(F)F)c2ccc(F)cc2)nn1
IC50 (second compound 0.0316 µM): > 10000 nM
IC50 (second compound 0.1 µM): 6090 nM
IC50 (second compound 0.316 µM): 7570 nM
IC50 (second compound 1 µM): 5900 nM
IC50 (second compound 3.16 µM): 5710 nM
IC50 (second compound 10 µM): 4500 nM
viability, T/C [1]: 100%
viability, T/C [2]: 101%
viability, T/C [3]: 85%
viability, T/C [4]: 76.3%
viability, T/C (second compound 0.0316 µM, first compound 3.16 µM): 63.8%
viability, T/C (second compound 0.0316 µM, first compound 10 µM): 61.8%
viability, T/C [5]: 102%
viability, T/C [6]: 94.2%
viability, T/C [7]: 77.6%
viability, T/C [8]: 78.5%
viability, T/C (second compound 0.1 µM, first compound 3.16 µM): 53.4%
viability, T/C (second compound 0.1 µM, first compound 10 µM): 45.1%
viability, T/C [9]: 104%
viability, T/C [10]: 93.6%
viability, T/C [11]: 96.4%
viability, T/C [12]: 91.2%
viability, T/C (second compound 0.316 µM, first compound 3.16 µM): 73.2%
viability, T/C (second compound 0.316 µM, first compound 10 µM): 42.1%
viability, T/C [13]: 116%
viability, T/C [14]: 88%
viability, T/C [15]: 100%
viability, T/C [16]: 90.1%
viability, T/C (second compound 1 µM, first compound 3.16 µM): 60%
viability, T/C (second compound 1 µM, first compound 10 µM): 39.1%
viability, T/C [17]: 107%
viability, T/C [18]: 97.3%
viability, T/C [19]: 96.6%
viability, T/C [20]: 95.2%
viability, T/C (second compound 3.16 µM, first compound 3.16 µM): 65%
viability, T/C (second compound 3.16 µM, first compound 10 µM): 35.6%
viability, T/C [21]: 110%
viability, T/C [22]: 88.5%
viability, T/C [23]: 91.4%
viability, T/C [24]: 86.5%
viability, T/C (second compound 10 µM, first compound 3.16 µM): 55.5%
viability, T/C (second compound 10 µM, first compound 10 µM): 29.8%

CCc1c2c(nc3ccc(O)cc13)-c1cc3c(c(=O)n1C2)COC(=O)[C@]3(O)CC + Cc1cccc(N(C)C(=O)C2C(O)CCN2c2nc(C)cc(C(F)(F)F)c2C#N)c1
IC50 (second compound 0.0316 µM): < 3.16 nM
IC50 (second compound 0.1 µM): < 3.16 nM
IC50 (second compound 0.316 µM): < 3.16 nM
IC50 (second compound 1 µM): < 3.16 nM
IC50 (second compound 3.16 µM): < 3.16 nM
IC50 (second compound 10 µM): < 3.16 nM
viability, T/C [25]: 34%
viability, T/C [26]: 20.2%
viability, T/C [1]: 5.31%
viability, T/C [2]: 2.32%
viability, T/C [3]: 1.63%
viability, T/C [4]: 1.3%
viability, T/C [27]: 26.2%
viability, T/C [28]: 15.4%
viability, T/C [5]: 5.43%
viability, T/C [6]: 2.52%
viability, T/C [7]: 1.76%
viability, T/C [8]: 2.63%
viability, T/C [29]: 28%
viability, T/C [30]: 18.8%
viability, T/C [9]: 4.71%
viability, T/C [10]: 2.82%
viability, T/C [11]: 1.97%
viability, T/C [12]: 2.54%
viability, T/C [31]: 30.3%
viability, T/C [32]: 15.7%
viability, T/C [13]: 5.16%
viability, T/C [14]: 2.53%
viability, T/C [15]: 1.97%
viability, T/C [16]: 2.5%
viability, T/C [33]: 36.4%
viability, T/C [34]: 13.5%
viability, T/C [17]: 4.68%
viability, T/C [18]: 2.35%
viability, T/C [19]: 2.92%
viability, T/C [20]: 1.89%
viability, T/C [35]: 28.2%
viability, T/C [36]: 15.4%
viability, T/C [21]: 5.22%
viability, T/C [22]: 3.2%
viability, T/C [23]: 3.11%
viability, T/C [24]: 1.34%

CCc1c2c(nc3ccc(O)cc13)-c1cc3c(c(=O)n1C2)COC(=O)[C@]3(O)CC + COC1C(OC(N)=O)C(O)C(Oc2ccc3c(O)c(NC(=O)c4ccc(O)c(CC=C(C)C)c4)c(=O)oc3c2C)OC1(C)C
IC50 (second compound 0.0316 µM): < 3.16 nM
IC50 (second compound 0.1 µM): < 3.16 nM
IC50 (second compound 0.316 µM): < 3.16 nM
IC50 (second compound 1 µM): < 3.16 nM
IC50 (second compound 3.16 µM): < 3.16 nM
IC50 (second compound 10 µM): < 3.16 nM
viability, T/C [25]: 28.4%
viability, T/C [26]: 11.8%
viability, T/C [1]: 4.37%
viability, T/C [2]: 3.1%
viability, T/C [3]: 2.06%
viability, T/C [4]: 1.39%
viability, T/C [27]: 30%
viability, T/C [28]: 13.9%
viability, T/C [5]: 5.1%
viability, T/C [6]: 2.75%
viability, T/C [7]: 2%
viability, T/C [8]: 1.2%
viability, T/C [29]: 28.4%
viability, T/C [30]: 12%
viability, T/C [9]: 4.66%
viability, T/C [10]: 2.52%
viability, T/C [11]: 6.96%
viability, T/C [12]: 2.86%
viability, T/C [31]: 30.1%
viability, T/C [32]: 13.1%
viability, T/C [13]: 4.67%
viability, T/C [14]: 2.88%
viability, T/C [15]: 2.98%
viability, T/C [16]: 1.68%
viability, T/C [33]: 24.4%
viability, T/C [34]: 14.4%
viability, T/C [17]: 6.11%
viability, T/C [18]: 3.15%
viability, T/C [19]: 2.62%
viability, T/C [20]: 1.16%
viability, T/C [35]: 32%
viability, T/C [36]: 12.5%
viability, T/C [21]: 4.86%
viability, T/C [22]: 3.88%
viability, T/C [23]: 2.05%
viability, T/C [24]: 1.75%
